# Target: T1, α-2 adrenoreceptor (Homo sapiens, UniProt P08913)
# T1 construct: purchased Eurofins/DiscoverX SafetyScan47 panel
# T1 sequence (P08913 1-465): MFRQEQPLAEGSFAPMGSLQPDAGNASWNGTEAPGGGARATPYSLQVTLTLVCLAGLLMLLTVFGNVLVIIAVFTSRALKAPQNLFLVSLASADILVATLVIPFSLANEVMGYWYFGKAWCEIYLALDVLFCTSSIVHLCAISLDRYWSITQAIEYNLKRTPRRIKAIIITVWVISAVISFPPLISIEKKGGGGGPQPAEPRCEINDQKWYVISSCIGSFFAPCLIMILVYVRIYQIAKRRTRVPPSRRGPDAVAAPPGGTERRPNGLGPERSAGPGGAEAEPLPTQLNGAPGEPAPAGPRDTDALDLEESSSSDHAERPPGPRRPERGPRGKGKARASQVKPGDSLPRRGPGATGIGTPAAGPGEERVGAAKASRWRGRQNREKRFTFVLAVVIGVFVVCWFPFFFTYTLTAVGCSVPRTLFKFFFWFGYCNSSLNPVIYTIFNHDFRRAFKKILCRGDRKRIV
# Assay: Eurofins/DiscoverX SafetyScan47 panel, α-2 adrenoreceptor agonist activity
# Assay type: cell-based
# Conditions: compared to UK 14304 control; between 3 nM and 6.7 µM
# Excerpt: Given the associations between increased histidine betaine and improved health in the dolphin model, it was hypothesized that histidine betaine has direct therapeutic activities. To test this hypothesis, the Eurofins/DiscoverX SafetyScan47 panel was used to test histidine betaine at 10 concentrations for agonist and antagonist activities across 76 assays and 47 genes and targets that are relevant to compound safety and mechanisms of action, including G-protein coupled receptors, kinases, transporters, ion channels, nuclear receptors, and non-kinase enzymes. Detailed methods used for these assays and assay readouts are available from Eurofins/DiscoverX.
# Of 47 pharmacological targets tested for activity with histidine betaine, the following had partial activities, achieving at least 15% that of internal positive controls between 3 nM and 6.7 µM: α-2 adrenoreceptor agonist (maximum activity = 27% compared to UK 14304 control), and cyclooxygenase-1 (COX1) inhibitor (maximum activity = 23% compared to indomethacin control) (FIG. 4).
compound,measurement,value
C[N+](C)(C)C(Cc1cnc[nH]1)C(=O)[O-] (stereo not shown) [histidine betaine],"maximum activity, α-2 adrenoreceptor agonist",27%

# Reference: patent US20230293491A1, “COMPOSITIONS AND METHODS FOR DIAGNOSIS AND TREATMENT OF CONDITIONS RELATED TO THE QUALITY OF AGING AND LONGEVITY” (EPITRACKER, INC., priority 2020, published 2023)
